Starred links: 1 amine or outer side, 2 acyl side, 3 side chain; linkers in the order of their positions; H or OH if unused. Non-standard residues stand in square brackets, D forms with d. Residues, ends and D or L forms follow the SMILES beside them. *: point of attachment. Lys(Me3) = C[N+](C)(C)CCCC[C@H](N)C(=O)O; Ethylenediamine = C(CN[*:2])N[*:1]; Gly(cPent) = N[C@H](C(=O)O)C1CCCC1; Hydrocinnamoyl = O=C(CCc1ccccc1)*; NBnAla = C[C@H](NCc1ccccc1)C(=O)O; Ala(cPr) = N[C@@H](CC1CC1)C(=O)O; 3Pal = N[C@@H](Cc1cccnc1)C(=O)O; Cha = N[C@@H](CC1CCCCC1)C(=O)O; Gly(cPr) = N[C@H](C(=O)O)C1CC1; Phg = N[C@H](C(=O)O)c1ccccc1; Tle = CC(C)(C)[C@H](N)C(=O)O; Nicotinoyl = O=C(c1cccnc1)*; Tos = Cc1ccc(S(=O)(=O)*)cc1; X5 = c1ccc2[nH]c(N*)nc2c1; X9 = O[C@H]1CCCC[C@@H]1N*; NHCH(CH2OH)2 = OCC(CO)N*; Nle = CCCC[C@H](N)C(=O)O; Cbz = O=C(OCc1ccccc1)*; PhAc = O=C(Cc1ccccc1)*; Boc = CC(C)(C)OC(=O)*; Bz = O=C(c1ccccc1)*; NHCH2CH2OH = OCCN*; X8 = OCC1(N*)CCCC1; X4 = CC(C)C(CO)N*; X1 = CCCC(CO)N*; NHPr = CCCN*
molecular target: T1, Chromobox protein homolog 7 (Homo sapiens, UniProt O95931); test: Displacement of FITC-labeled H3K27me3 from CBX7 (unknown origin) after 15 mins by fluorescence polarization assay
T1 sequence (O95931 whole entry): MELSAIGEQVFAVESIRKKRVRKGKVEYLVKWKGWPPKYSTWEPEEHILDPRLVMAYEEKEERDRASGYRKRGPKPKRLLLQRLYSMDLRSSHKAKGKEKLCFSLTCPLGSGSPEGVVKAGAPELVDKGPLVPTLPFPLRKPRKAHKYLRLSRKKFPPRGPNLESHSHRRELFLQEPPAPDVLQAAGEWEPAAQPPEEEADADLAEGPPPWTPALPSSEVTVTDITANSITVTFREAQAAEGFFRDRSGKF

IC50 | SMILES
39 µM | CC[C@H](NC(=O)[C@H](Cc1ccccc1)NC(C)=O)C(=O)N[C@@H](CC(C)C)C(=O)N[C@@H](CCCC[N+](C)(C)C)C(=O)N[C@@H](CO)C(N)=O
27 µM | CC(=O)N[C@@H](Cc1ccccc1)C(=O)N[C@@H](C)C(=O)N[C@@H](CC(C)C)C(=O)N[C@@H](CCCC[N+](C)(C)C)C(=O)N[C@@H](CO)C(=O)O
79 µM | CC(=O)N[C@@H](Cc1ccccc1)C(=O)N[C@@H](C)C(=O)N[C@@H](CC(C)C)C(=O)N[C@@H](CCCC[N+](C)(C)C)C(=O)N[C@H](CO)C(=O)O
> 2000 µM | CC(C)C[C@H](NC(=O)[C@H](C)NCc1ccc(C(=O)O)cc1)C(=O)N[C@@H](CCCC[N+](C)(C)C)C(=O)N[C@@H](CO)C(N)=O
10.3 µM | CC(=O)N[C@@H](Cc1ccccc1)C(=O)N[C@@H](C)C(=O)N[C@@H](Cc1ccccc1)C(=O)N[C@@H](CCCC[N+](C)(C)C)C(=O)N[C@@H](CO)C(N)=O (Ac-FAF[Lys(Me3)]S-NH2)
5.7 µM | CC[C@H](C)[C@H](NC(=O)[C@H](C)NC(=O)[C@H](Cc1ccccc1)NC(C)=O)C(=O)N[C@@H](CCCC[N+](C)(C)C)C(=O)N[C@@H](CO)C(N)=O (Ac-FAI[Lys(Me3)]S-NH2)
10.1 µM | CC(=O)N[C@@H](Cc1ccccc1)C(=O)N[C@@H](C)C(=O)N[C@@H](CCCCN)C(=O)N[C@@H](CCCC[N+](C)(C)C)C(=O)N[C@@H](CO)C(N)=O (Ac-FAK[Lys(Me3)]S-NH2)
22 µM | CC(=O)N[C@@H](Cc1ccccc1)C(=O)N[C@@H](C)C(=O)N[C@@H](CC(C)C)C(=O)N[C@@H](CCCC[N+](C)(C)C)C(=O)NCCN (Ac-FAL[Lys(Me3)]-Ethylenediamine)
26 µM | CC(=O)N[C@@H](Cc1ccccc1)C(=O)N[C@@H](C)C(=O)N[C@@H](CC(C)C)C(=O)N[C@@H](CCCC[N+](C)(C)C)C(=O)NCCO (Ac-FAL[Lys(Me3)]-NHCH2CH2OH)
102 µM | CCCNC(=O)[C@H](CCCC[N+](C)(C)C)NC(=O)[C@H](CC(C)C)NC(=O)[C@H](C)NC(=O)[C@H](Cc1ccccc1)NC(C)=O (Ac-FAL[Lys(Me3)]-NHPr)
560 µM | CC(=O)N[C@@H](Cc1ccccc1)C(=O)N[C@@H](C)C(=O)N[C@@H](CC(C)C)C(=O)N[C@@H](CCCC[N+](C)(C)C)C(=O)O (Ac-FAL[Lys(Me3)]-OH)
> 500 µM | CCCC(CO)NC(=O)[C@H](CCCC[N+](C)(C)C)NC(=O)[C@H](CC(C)C)NC(=O)[C@H](C)NC(=O)[C@H](Cc1ccccc1)NC(C)=O (stereo not given in full) (Ac-FAL[Lys(Me3)]-X1)
> 250 µM | CC(=O)N[C@@H](Cc1ccccc1)C(=O)N[C@@H](C)C(=O)N[C@@H](CC(C)C)C(=O)N[C@@H](CCCC[N+](C)(C)C)C(=O)NC(CO)C(C)C (stereo not given in full) (Ac-FAL[Lys(Me3)]-X4)
35 µM | CC(=O)N[C@@H](Cc1ccccc1)C(=O)N[C@@H](C)C(=O)N[C@@H](CC(C)C)C(=O)N[C@@H](CCCC[N+](C)(C)C)C(=O)Nc1nc2ccccc2[nH]1 (Ac-FAL[Lys(Me3)]-X5)
> 250 µM | CC(=O)N[C@@H](Cc1ccccc1)C(=O)N[C@@H](C)C(=O)N[C@@H](CC(C)C)C(=O)N[C@@H](CCCC[N+](C)(C)C)C(=O)NC1(CO)CCCC1 (Ac-FAL[Lys(Me3)]-X8)
> 250 µM | CC(=O)N[C@@H](Cc1ccccc1)C(=O)N[C@@H](C)C(=O)N[C@@H](CC(C)C)C(=O)N[C@@H](CCCC[N+](C)(C)C)C(=O)N[C@H]1CCCC[C@@H]1O (Ac-FAL[Lys(Me3)]-X9)
105 µM | CC(=O)N[C@@H](Cc1ccccc1)C(=O)N[C@@H](C)C(=O)N[C@@H](CC(C)C)C(=O)N[C@@H](CCCC[N+](C)(C)C)C(=O)NCCNC(=O)OC(C)(C)C (Ac-FAL[Lys(Me3)]-{Ethylenediamine-Boc})
23 µM | CC(=O)N[C@@H](Cc1ccccc1)C(=O)N[C@@H](C)C(=O)N[C@@H](CC(C)C)C(=O)N[C@@H](CCCC[N+](C)(C)C)C(=O)NC(CO)CO (Ac-FAL[Lys(Me3)]-{NHCH(CH2OH)2})
62 µM | CSCC[C@H](NC(=O)[C@H](C)NC(=O)[C@H](Cc1ccccc1)NC(C)=O)C(=O)N[C@@H](CCCC[N+](C)(C)C)C(=O)N[C@@H](CO)C(N)=O (Ac-FAM[Lys(Me3)]S-NH2)
35 µM | CC(=O)N[C@@H](Cc1ccccc1)C(=O)N[C@@H](C)C(=O)N[C@H](C(=O)N[C@@H](CCCC[N+](C)(C)C)C(=O)N[C@@H](CO)C(N)=O)[C@@H](C)O (Ac-FAT[Lys(Me3)]S-NH2)
6.8 µM | CC(=O)N[C@@H](Cc1ccccc1)C(=O)N[C@@H](C)C(=O)N[C@H](C(=O)N[C@@H](CCCC[N+](C)(C)C)C(=O)N[C@@H](CO)C(N)=O)C(C)C (Ac-FAV[Lys(Me3)]S-NH2)
13 µM | CC(=O)N[C@@H](Cc1ccccc1)C(=O)N[C@@H](C)C(=O)N[C@@H](Cc1c[nH]c2ccccc12)C(=O)N[C@@H](CCCC[N+](C)(C)C)C(=O)N[C@@H](CO)C(N)=O (Ac-FAW[Lys(Me3)]S-NH2)
11 µM | CC(=O)N[C@@H](Cc1ccccc1)C(=O)N[C@@H](C)C(=O)N[C@@H](Cc1cccnc1)C(=O)N[C@@H](CCCC[N+](C)(C)C)C(=O)N[C@@H](CO)C(N)=O (Ac-FA[3Pal][Lys(Me3)]S-NH2)

IC50 | SMILES
11.2 µM | CC(=O)N[C@@H](Cc1ccccc1)C(=O)N[C@@H](C)C(=O)N[C@@H](CC1CC1)C(=O)N[C@@H](CCCC[N+](C)(C)C)C(=O)N[C@@H](CO)C(N)=O (Ac-FA[Ala(cPr)][Lys(Me3)]S-NH2)
8.8 µM | CC(=O)N[C@@H](Cc1ccccc1)C(=O)N[C@@H](C)C(=O)N[C@@H](CC1CCCCC1)C(=O)N[C@@H](CCCC[N+](C)(C)C)C(=O)N[C@@H](CO)C(N)=O (Ac-FA[Cha][Lys(Me3)]S-NH2)
6 µM | CC(=O)N[C@@H](Cc1ccccc1)C(=O)N[C@@H](C)C(=O)N[C@H](C(=O)N[C@@H](CCCC[N+](C)(C)C)C(=O)N[C@@H](CO)C(N)=O)C1CCCC1 (Ac-FA[Gly(cPent)][Lys(Me3)]S-NH2)
21 µM | CC(=O)N[C@@H](Cc1ccccc1)C(=O)N[C@@H](C)C(=O)N[C@H](C(=O)N[C@@H](CCCC[N+](C)(C)C)C(=O)N[C@@H](CO)C(N)=O)C1CC1 (Ac-FA[Gly(cPr)][Lys(Me3)]S-NH2)
23 µM | CCCC[C@H](NC(=O)[C@H](C)NC(=O)[C@H](Cc1ccccc1)NC(C)=O)C(=O)N[C@@H](CCCC[N+](C)(C)C)C(=O)N[C@@H](CO)C(N)=O (Ac-FA[Nle][Lys(Me3)]S-NH2)
67 µM | CC(=O)N[C@@H](Cc1ccccc1)C(=O)N[C@@H](C)C(=O)N[C@H](C(=O)N[C@@H](CCCC[N+](C)(C)C)C(=O)N[C@@H](CO)C(N)=O)C(C)(C)C (Ac-FA[Tle][Lys(Me3)]S-NH2)
53 µM | CC(=O)N[C@@H](Cc1ccccc1)C(=O)N[C@@H](CO)C(=O)N[C@@H](CC(C)C)C(=O)N[C@@H](CCCC[N+](C)(C)C)C(=O)N[C@@H](CO)C(N)=O (Ac-FSL[Lys(Me3)]S-NH2)
> 500 µM | CC(=O)N[C@@H](Cc1ccccc1)C(=O)N[C@H](C(=O)N[C@@H](CC(C)C)C(=O)N[C@@H](CCCC[N+](C)(C)C)C(=O)N[C@@H](CO)C(N)=O)C(C)C (Ac-FVL[Lys(Me3)]S-NH2)
120 µM | CCCC[C@H](NC(=O)[C@H](Cc1ccccc1)NC(C)=O)C(=O)N[C@@H](CC(C)C)C(=O)N[C@@H](CCCC[N+](C)(C)C)C(=O)N[C@@H](CO)C(N)=O (Ac-F[Nle]L[Lys(Me3)]S-NH2)
7.8 µM | CC(=O)N[C@@H](Cc1c[nH]c2ccccc12)C(=O)N[C@@H](C)C(=O)N[C@@H](CC(C)C)C(=O)N[C@@H](CCCC[N+](C)(C)C)C(=O)N[C@@H](CO)C(N)=O (Ac-WAL[Lys(Me3)]S-NH2)
8.6 µM | CC(=O)N[C@@H](Cc1ccc(O)cc1)C(=O)N[C@@H](C)C(=O)N[C@@H](CC(C)C)C(=O)N[C@@H](CCCC[N+](C)(C)C)C(=O)N[C@@H](CO)C(N)=O (Ac-YAL[Lys(Me3)]S-NH2)
26 µM | CC(=O)N[C@H](C(=O)N[C@@H](C)C(=O)N[C@@H](CC(C)C)C(=O)N[C@@H](CCCC[N+](C)(C)C)C(=O)N[C@@H](CO)C(N)=O)c1ccccc1 (Ac-[Phg]AL[Lys(Me3)]S-NH2)
57 µM | CC(C)C[C@H](NC(=O)[C@H](C)NC(=O)c1ccccc1)C(=O)N[C@@H](CCCC[N+](C)(C)C)C(=O)N[C@@H](CO)C(N)=O (Bz-AL[Lys(Me3)]S-NH2)
8.8 µM | CC(C)C[C@H](NC(=O)[C@H](C)NC(=O)[C@H](Cc1ccccc1)NC(=O)c1ccccc1)C(=O)N[C@@H](CCCC[N+](C)(C)C)C(=O)N[C@@H](CO)C(N)=O (Bz-FAL[Lys(Me3)]S-NH2)
58 µM | CC(C)C[C@H](NC(=O)[C@H](C)NC(=O)CNC(=O)c1ccccc1)C(=O)N[C@@H](CCCC[N+](C)(C)C)C(=O)N[C@@H](CO)C(N)=O (Bz-GAL[Lys(Me3)]S-NH2)
58 µM | CC(C)C[C@H](NC(=O)[C@H](C)NC(=O)OCc1ccccc1)C(=O)N[C@@H](CCCC[N+](C)(C)C)C(=O)N[C@@H](CO)C(N)=O (Cbz-AL[Lys(Me3)]S-NH2)
> 2000 µM | CC(C)C[C@H](NC(=O)[C@H](C)NCc1ccccc1)C(=O)N[C@@H](CCCC[N+](C)(C)C)C(=O)N[C@@H](CO)C(N)=O (H-[NBnAla]L[Lys(Me3)]S-NH2)
26 µM | CC(C)C[C@H](NC(=O)[C@H](C)NC(=O)CCc1ccccc1)C(=O)N[C@@H](CCCC[N+](C)(C)C)C(=O)N[C@@H](CO)C(N)=O (Hydrocinnamoyl-AL[Lys(Me3)]S-NH2)
91 µM | CC(C)C[C@H](NC(=O)[C@H](C)NC(=O)c1cccnc1)C(=O)N[C@@H](CCCC[N+](C)(C)C)C(=O)N[C@@H](CO)C(N)=O (Nicotinoyl-AL[Lys(Me3)]S-NH2)
23 µM | CC(C)C[C@H](NC(=O)[C@H](C)NC(=O)Cc1ccccc1)C(=O)N[C@@H](CCCC[N+](C)(C)C)C(=O)N[C@@H](CO)C(N)=O (PhAc-AL[Lys(Me3)]S-NH2)
100 µM | CC(C)C[C@H](NC(=O)[C@H](C)NC(=O)CNC(=O)Cc1ccccc1)C(=O)N[C@@H](CCCC[N+](C)(C)C)C(=O)N[C@@H](CO)C(N)=O (PhAc-GAL[Lys(Me3)]S-NH2)
> 250 µM | Cc1ccc(S(=O)(=O)N[C@@H](Cc2ccccc2)C(=O)N[C@@H](C)C(=O)N[C@@H](CC(C)C)C(=O)N[C@@H](CCCC[N+](C)(C)C)C(=O)N[C@@H](CO)C(N)=O)cc1 (Tos-FAL[Lys(Me3)]S-NH2)
